Measured values reported in paper PMC10706865, “Repurposing Study of 4-Acyl-1-phenylaminocarbonyl-2-substituted-piperazine Derivatives as Potential Anticancer Agents—In Vitro Evaluation against Breast Cancer Cells” (International Journal of Molecular Sciences, 2023).
Where “and” joins values, the source holds several entries; their conditions need not be identical. Identical values can stand only once. Like-named read-outs stand apart in the source and are kept apart here.

Experiments:
HaCaT cells = test: Resazurin cell viability assay, HaCaT nonmalignant cells; format: cell-based; conditions: Homo sapiens; for IC50: 72 h; for CC50: 144 h
Excerpt: (§1) One key limitation of most anticancer drugs is that they not only target cancer cells but also affect nonmalignant cells with high division rates. This can induce numerous adverse effects, such as severe nausea and vomiting, hair loss, diarrhea, mouth sores, anemia, erythematous eruptions, etc. For example, skin cells, which are constantly renewing themselves, are often damaged by antimetabolites or alkylating agents. This can lead to painful erythematous eruptions. […] These cells are derived from normal adult tissue and have a division rate similar to that of cancer cells. A549 cells and HaCaT cells were exposed to various concentrations of 31, 32, 35, 37, or gemcitabine (a common antimetabolite used to treat cancer) for 72 h. Cell viability was determined with the resazurin assay. Subsequently, the cells were allowed to grow in a drug-free medium for another 72 h. This was performed to test their survival and proliferation ability after the removal of the compounds. Cell viability was again measured with the resazurin assay. […] It should be mentioned that cells exposed to high concentrations of compounds above 100 μM were unable to recover after treatment.
(§2) Exponentially growing cells were seeded into 96-well plates, and drugs were added 24 h later. Each compound was dissolved with DMSO (Panreac Applichem) to prepare a stock solution (100 mM). The working solutions of specific concentrations were prepared via the dilution of the stock solutions in the culture medium and were immediately used to treat the cells. The remaining stock solutions were aliquoted and frozen at −40 °C. We used different aliquots in each independent experiment to avoid the freeze–thaw cycles. Cells were exposed to the drugs for 72 h. After these 72 h, cell viability was determined with the MTT assay or the resazurin assay. These assays are colorimetric techniques that are widely used to determine cell viability.
(§3) The resazurin assay measures the ability of viable cells to transform the blue compound resazurin into the pink compound resorufin. There is a direct correlation between the reduction in resazurin and the number of viable cells. After seeding for 24 h, cells were exposed to several concentrations of compounds. After a 72 h treatment period, the cells were washed once with a phosphate-buffered saline (PBS, biowest), and 150 μL of resazurin (20 μg/mL in the medium) was added to each well. The plates were then incubated for 4–5 h at 37 °C, 5% CO2, and optical densities were measured at 540 nm and 620 nm using a multiwell plate spectrophotometer reader (Imark Bio Rad Laboratories Inc., Hercules, CA, USA). Subsequently, cells were washed once with PBS and allowed to grow for an additional 72 h in drug-free medium to allow them to recuperate from possible damage induced by the tested compounds. After the treatment period, cell viability was measured following the same protocol described above.
(§4) In both assays, cell viability was expressed as percentage in relation to controls. All data were averaged from at least two independent experiments and were expressed as mean ± standard error of the mean (SEM). Selectivity indices (SI) were calculated by dividing the IC50 values in the nonmalignant cells by those in the cancer cells.

A549 cells = test: Resazurin cell viability assay, A549 cancer cells; format: cell-based, human; conditions: for IC50: Homo sapiens
Excerpt: as §1, §2, §3, §4

[1] = system: MCF7 human breast cancer cells; test: MTT cell viability assay, MCF7 breast cancer cells; format: cell-based; conditions: for IC50: 72 h exposure, MTT assay, read-out: IC50 (Mean ± SEM; μM) MCF7 (Cancer); for Selectivity Index: IC50 MCF 10A divided by IC50 MCF7, 72 h, MTT
Procedure: (§5) To evaluate the cytotoxicity of our compounds against cancer cells, they were evaluated in vitro against MCF7 human breast cancer cells. To examine the selectivity of our compounds, they were also studied against MCF 10A human normal cells. Both cell lines were exposed to different concentrations of our compounds for 72 h before measuring cell viability with the 3-(4,5-dimethylthiazol-2-yl)-2,5-diphenyltetrazolium bromide (MTT) assay (for conditions of the MTT assay, see the Experimental Part, Section 3). Docetaxel, an anticancer drug used in clinics, was tested under the same experimental conditions. Data were obtained from at least two independent experiments and were expressed as means ± standard error of means (SEM). The half-maximal inhibitory concentration (IC50) value of each compound was calculated, and the results are collected in Table 2. To evaluate the selective activity of our compounds, the selectivity index (SI) was also calculated. The curves of cell viability of MCF7 cancer cells and MCF 10A normal cells after the treatment with our compounds are shown (Figure 5, Figure 6, Figure 7, Figure 8 and Figure 9 and Figures S1–S4).
as §2
(§6) The MTT assay is based on the capability of viable cells to transform the MTT salt into a purple formazan dye. After an incubation period of the cells with the MTT and a solubilization step, the quantity of the colored product is measured with a plate reading spectrophotometer. […] The quantity of formazan produced is presumably proportional to the number of viable cells. After seeding for 24 h, cells were treated with the tested drugs for 72 h. Then, medium was removed, and 125 μL of MTT (1 mg/mL in medium) was added to each well for 3–4 h. Subsequently, 80 μL of 20% sodium dodecyl sulfate (Panreac Applichem) in 20 mM hydrochloric acid (Panreac Applichem) was added to dissolve the insoluble purple formazan product, plates were incubated for 10 h at 37 °C, and optical densities were measured at 540 nm on a multiwell plate spectrophotometer reader.
as §4

[2] = system: MCF 10A human normal breast cells; test: MTT cell viability assay, MCF 10A normal breast cells; format: cell-based; conditions: 72 h exposure, read-out: IC50 (Mean ± SEM; μM) MCF 10A (Normal)
Procedure: as §5, §2, §6, §4

A549 lung cancer cells = test: MTT cell viability assay, A549 lung cancer cells; format: cell-based, human; conditions: for IC50: 72 h exposure, MTT assay, read-out: IC50 (Mean ± SEM; μM) A549 (Cancer); for Selectivity Index: IC50 MRC-5 divided by IC50 A549, 72 h, MTT
Procedure: (§7) Benzofurane scaffold, piperazine ring, and urea function are relevant privileged structures present not only in anticancer drugs against breast cancer but also against other types of cancer, such as lung cancer, hepatocarcinoma, and gastric cancer. […] MRC-5 normal lung cells and A549 lung cancer cells were exposed to compounds 31, 32, 35, 37, and cisplatin (a common drug used to treat lung cancer) for 72 h, and cell viability was measured using the MTT assay (Figure 10 and Table 3). Compounds 35 and 37 also had high selectivity for A549 cancer cells.
as §2, §6, §4

MRC-5 normal lung cells = test: MTT cell viability assay, MRC-5 normal lung cells; format: cell-based, human; conditions: read-out: IC50 (Mean ± SEM; μM) MRC-5 (Normal)
Procedure: as §7, §2, §6, §4

[3] = IC50 HaCaT divided by IC50 A549, 72 h Treatment + 72 h Recovery Period, resazurin
[4] = IC50 HaCaT divided by IC50 A549, 72 h Treatment, resazurin
[5] = Homo sapiens, MRC5, 72 h exposure
[6] = 72 h Treatment, resazurin assay, read-out: IC50 (Mean ± SEM; μM) HaCaT (Nonmalignant)
[7] = 72 h Treatment + 72 h Recovery Period, resazurin assay, read-out: IC50 (Mean ± SEM; μM) HaCaT (Nonmalignant)
[8] = A549, 72 h, 72 h Treatment, resazurin assay, read-out: IC50 (Mean ± SEM; μM) A549 (Cancer)
[9] = A549, 144 h, 72 h Treatment + 72 h Recovery Period, resazurin assay, read-out: IC50 (Mean ± SEM; μM) A549 (Cancer)

| SMILES | IC50 (HaCaT cells; gemcitabine line in nM, 72 h Treatment + 72 h Recovery Period, resazurin, read-out: IC50 (Mean ± SEM) HaCaT (Nonmalignant)) [nM] | IC50 (HaCaT cells; gemcitabine line in nM, 72 h Treatment, resazurin, read-out: IC50 (Mean ± SEM) HaCaT (Nonmalignant)) [nM] | IC50 (A549 cells; A549, 72 h, gemcitabine line in nM, 72 h Treatment + 72 h Recovery Period, resazurin, read-out: IC50 (Mean ± SEM) A549 (Cancer)) [nM] | IC50 (A549 cells; A549, 72 h, gemcitabine line in nM, 72 h Treatment, resazurin, read-out: IC50 (Mean ± SEM) A549 (Cancer)) [nM] | Selectivity Index (A549 cells; [3]) | Selectivity Index (A549 cells; [4]) | IC50 ([1]; Homo sapiens, MCF7, 72 h) [µM] | Selectivity Index [1] | IC50 [2] [µM] | IC50 (A549 lung cancer cells; Homo sapiens, A549) [µM] | Selectivity Index (A549 lung cancer cells) | IC50 (MRC-5 normal lung cells; [5]) [µM] | IC50 (HaCaT cells; [6]) [nM] | CC50 (HaCaT cells; [7]) [µM] | IC50 (A549 cells; [8]) [nM] | IC50 (A549 cells; [9]) [nM] | IC50 [1] [µM] | IC50 (A549 lung cancer cells) [µM] | IC50 (MRC-5 normal lung cells; 72 h exposure) [µM] |
| --- | --- | --- | --- | --- | --- | --- | --- | --- | --- | --- | --- | --- | --- | --- | --- | --- | --- | --- | --- |
| Nc1ccn([C@@H]2O[C@H](CO)[C@@H](O)C2(F)F)c(=O)n1 [Gemcitabine, reference compound] | 8.8 ± 6.5 | 13.1 ± 6.2 | 9.3 ± 7 | 3.5 ± 0.8 | 1.0 ± 0.1 | 3.3 ± 1.4 | – | – | – | – | – | – | – | – | – | – | – | – | – |
| N#Cc1ccc(NC(=O)N2CCN(C(=O)c3cc4ccccc4o3)CC2c2ccccc2)cc1 (stereo not drawn) [Compound 37] | – | – | – | – | – | 1.1 ± 0.1 | 57.1 ± 34.7 | > 10 | 484 ± 233 | 18.7 ± 2.7 | 12.8 ± 1.6 | 236 ± 5.4 | 24800 ± 1800 | 64.6 ± 6.8 | 22500 ± 2700 | 41600 ± 8900 | – | – | – |
| O=C(c1cc2ccccc2o1)N1CCN(C(=O)Nc2ccc([N+](=O)[O-])cc2)C(c2ccccc2)C1 (stereo not drawn) [Compound 35] | – | – | – | – | – | 1.6 ± 0.2 | 23 ± 3.8 | 11.1 ± 2.9 | 244 ± 24.9 | 25.6 ± 2.9 | 6.5 ± 2.1 | 165 ± 4.1 | 41600 ± 8100 | 97.5 ± 16.2 | 28400 ± 7300 | 69300 ± 20200 | – | – | – |
| CC(C)(C)OC(=O)N1CCN(C(=O)Nc2cc(C(F)(F)F)ccc2Cl)C(c2ccccc2)C1 (stereo not drawn) [Compound 31] | – | – | – | – | – | 0.8 ± 0.2 | < 20 | > 10 and 16.6 ± 1.9 | 298 ± 56.4 | 4.8 ± 0.8 | 2.1 ± 0.3 | 14.2 ± 0.5 | 14500 ± 3200 | 30.9 ± 7.5 | 17000 ± 1600 | 17800 ± 2000 | 18.6 ± 4.2 | – | – |
| CC(C)(C)OC(=O)N1CCN(C(=O)Nc2ccc(Cl)c(C(F)(F)F)c2)C(c2ccccc2)C1 (stereo not drawn) [Compound 32] | – | – | – | – | 1.1 ± 0.1 | 1.1 ± 0.1 | – | 12.6 ± 2.6 | 34.1 ± 2.2 | 5.2 ± 0.4 | 1.0 ± 0.1 | 4.3 ± 0.2 | 6700 ± 800 | 14.9 ± 1.3 | 6200 ± 600 | 13600 ± 100 | – | – | – |
| N.N.[Cl][Pt][Cl] [Cisplatin, reference compound] | – | – | – | – | – | – | – | – | – | – | 6.3 ± 1.8 | – | – | – | – | – | – | 8.2 ± 2.2 | 31.8 ± 5.6 |
